Reference: US20250228815A1, “LYOPHILIZED RESINIFERATOXIN” (Gruenenthal GmbH, priority 2024, published 2025)
≈ marks a conversion by molar mass, not a printed value. Where two headings read alike, the source gives them in different places.

Columns and labels:
[1] = randomized, double-blind, placebo-controlled, single-dose trial of intraarticular Resiniferatoxin: analgesic effect (VAS pain on motion, WOMAC); assay type: in vivo, human
Procedure: (§1) The primary objective of this study was to compare the analgesic effects of single intraarticular injections of Resiniferatoxin (100 or 400 ng) compared to placebo, at 3 and 6 months postinjection, in participants with chronic osteoarthritic knee joint pain. Secondary objectives were to evaluate the analgesic effects of Resiniferatoxin versus placebo in terms of a responder analysis (percentage of subjects achieving ≥50% or ≥70% reduction in visual analog scale pain score) and changes in Western Ontario and McMaster Universities Arthritis Index (WOMAC) total and subscale scores (pain, physical function and stiffness). Safety and injection site pain were also evaluated.
(§2) The study was conducted as a randomized, double-blind, placebo-controlled, single-dose trial of Resiniferatoxin. Eligible patients were aged 40 to 80 years with radiographic knee osteoarthritis (Kellgren-Lawrence Grade 2-4 in the last 3 years) and a baseline visual analog scale (0-100 mm) pain score ≥40 mm on motion in the target knee, with or without pain medication. 67 subjects were randomized to treatment with either Resiniferatoxin 100 ng (n=24) or 400 ng (n=23), or placebo (n=20), administered intraarticularly into the index knee. Intraarticular Ropivacaine (5 ml, 0.5%) was administered 15 mins before investigational medicinal product. Visual analog scale scores were used to evaluate pain on motion as the average of the last 2 days in a target knee between baseline and at 3 and 6 months post injection. Injection site pain was rated (visual analog scale) from baseline (−0.5 h) up to 3 h post intraarticular injections.
Data values plotted as mean±standard error of mean, offset in X for clarity. ▴ Placebo (n=20); ▪ Resiniferatoxin 100 ng (n=24); ● Resiniferatoxin 400 ng (n=23).

[2] = cited from earlier work
[3] = same trial: safety, treatment emergent adverse events and injection site pain; assay type: in vivo, human; details: for subjects with severe adverse events: none related to investigational medicinal product
Procedure: as §1, §2

[4] = maximum solubility of Resiniferatoxin by the equilibrium method (HPLC); assay type: physicochemical; details: buffer medium with TPGS, 25 °C, pH 8, aqueous with cosolvent or surfactant or cyclodextrin, thermodynamic from solid, TPGS 3.5 mg/ml, n ≥ 3, read-out: RTX solubility
Procedure: The maximum solubility of Resiniferatoxin in various liquids was investigated by the equilibrium method.
Buffer media were saturated with an excess amount of Resiniferatoxin (characterized by undissolved API) and incubated at 25° C. while shaking (150 rpm) for 72 h. After incubation, 1 mL of each sample was centrifuged (10 min, 12045 RCF) and the supernatant was used to determine the amount of solubilized Resiniferatoxin via HPLC.

[5] = single intraarticular 100 ng or 400 ng

| Compound | reduction in WOMAC total and subscale scores (pain, physical function and stiffness) compared to placebo ([1]; 100 ng and 400 ng, at both 3 and 6 months) | pain reduction compared to placebo ([1]; 100 ng or 400 ng intraarticular) | first trial visit at which reduction in VAS pain on motion was observed ([1]; intention-to-treat population) [days] | last trial visit until which the effect lasted ([1]; intention-to-treat population) [month] | analgesic onset after administration [1, 5] | duration for which analgesia was evident during follow-up [1, 5] | efficacy ([2]; 5 μg, 12.5 μg, 20 μg and 30 μg cohorts, preliminary) | safety ([2]; onetime intraarticular injection up to 30 μg) | subjects with severe adverse events ([3]; Resiniferatoxin 100 ng) [subjects] | subjects with severe adverse events ([3]; Resiniferatoxin 400 ng) [subjects] | injection site pain (procedural pain) compared to placebo ([3]; highly variable across treatment groups) | time of peak injection site pain post-injection ([3]; intraarticular injection, moderate-severe intensity in some subjects) | injection site pain, return to baseline ([3]; post intraarticular injection) [h] | safety profile and tolerability [3, 5] | solubility at 72 h ([4]; Ex. 5-1: no ethanol, NaCl 8.58, CaCl2 0.2, KCl 0.1, trometamol 0.4 mg/ml, pH 8.0, mean ± SD) [µg/mL] | solubility at 72 h ([4]; Ex. 5-2: ethanol 39.44 mg/ml, NaCl 8.58, CaCl2 0.58, KCl 0.3, trometamol 1.22 mg/ml, pH 8.0, mean ± SD) [µg/mL] | solubility at 72 h ([4]; Ex. 5-3: ethanol 39.44 mg/ml, mannitol 14.9 mg/ml, salts as Ex. 5-2, pH 8.0, mean ± SD) [µg/mL] | solubility at 72 h ([4]; Ex. 5-4: no ethanol, NaCl 8.58, CaCl2 0.58, KCl 0.3, trometamol 1.22 mg/ml, pH 8.0, mean ± SD) [µg/mL] |
| --- | --- | --- | --- | --- | --- | --- | --- | --- | --- | --- | --- | --- | --- | --- | --- | --- | --- | --- |
| C=C(C)[C@]12C[C@@H](C)[C@@]34O[C@](Cc5ccccc5)(O[C@@H]1[C@@H]3C=C(COC(=O)Cc1ccc(O)c(OC)c1)C[C@]1(O)C(=O)C(C)=C[C@@H]41)O2 [Resiniferatoxin, 4-hydroxy-3-methoxy-benzeneacetic acid, [(2S,3aR,3bS,6aR,9aR,9bR, 10R,11aR)-3a,3b,6,6a,9a,10,11,11a-octahydro-6a-hydroxy-8,10-dimethyl-11a-(1-methylethenyl)-7-oxo-2-(phenylmethyl)-7H-2,9b-epoxyazuleno[5,4-e]-1,3-benzodioxol-5-yl]methyl ester] | greater reduction | greater pain reduction | 8 | 6 | within one week | at least 3 months | Preliminary efficacy was also observed | demonstrated safety | 2 | 3 | generally higher | around 0.5 h | ≤ 3 | good safety profile | – | – | – | – |
| C=C(C)[C@]12C[C@@H](C)[C@@]34O[C@](Cc5ccccc5)(O[C@@H]1[C@@H]3C=C(COC(=O)Cc1ccc(O)c(OC)c1)C[C@]1(O)C(=O)C(C)=C[C@@H]41)O2 [RTX] | – | – | – | – | – | – | – | – | – | – | – | – | – | – | 333 ± 100 (≈ 530 µM) | 630 ± 38 (≈ 1000 µM) | 336 ± 53 | 317 ± 75 (≈ 504 µM) |
